# Experimental data as given in US10827753B2, “Compositions and methods for controlling nematodes” (Monsanto Technology LLC, priority 2007, dated 2020).
# Marks after values point to notes of the source that are not given here.
# Columns and labels:
# Format in all cases: in vivo
# Meloidogyne incognita [1] = experiment: Fall nematicidal field testing on squash microplots
# Text: The test site was located at 3511 Highway F in New Melle, Mo., Saint Charles county. The soil was a native prairie/pasture covering silty clay loam soil. Holes were dug using a Bobcat 763 skid loader with a 12-inch auger to a depth of 18 inches. Total volume of each hole was about 1.2 cubic feet. Six cubic yards of topsoil and 9 tons of river sand were purchased from Dardenne Farms Topsoil. Mixing to a ratio of 4 volumes sand to 1 volume soil was accomplished using a trailer-mounted 9 cubic foot concrete mixer. Holes were filled and then re-filled 5 days later after settling. The mixture was 92.5% sand, 2.5% silt, and 5% clay. Organic matter was 0.2% and pH was 6.8.
# Treatments were arranged in a block design with the blocks laid out perpendicular to the primary slope and parallel to secondary slope. There are 7 inoculated controls and 5 non-inoculated controls and the distributions of disease severity appeared independent of location.
# Application rates are expressed as kg of active material per hectare, and the mg per plot is based on the surface area of the bored and filled holes (0.000008559 Ha). The DC compounds were formulated immediately before application as follows: 1) the amount required to treat all six replicates was dissolved in 300 ml of acetone, 2) for each plot 50 ml of that solution was added to a graduated cylinder with 2 ml of 12.5% Triton X100 and the volume was raised to 500 ml with tap water. The resultant mix is the same as used in the standard greenhouse assays (10% acetone, 0.05%×100). The oxamyl treatments were prepared from Vydate 2 L formulated the same way. The 500 ml was placed in a watering can and the entire volume was evenly sprinkled over the surface of the plot. No runoff occurred and pooling, if any, was short lived. The final drench volume was 0.58 ml/cm^2, compared to 0.2 ml/cm^2 used in our greenhouse, however the microplots are much deeper so the drench volume applied per soil volume treated is roughly the same.
# Meloidogyne incognita eggs were harvested over a two week period and stored at approximately 5° C. until needed. A stock of 5.6 million vermiform eggs was adjusted to 9000/ml in 620 ml. One day after treatment, two holes were made in each plot about 7 cm apart and equidistant from the squash plants. Five ml of egg suspension was pipetted into each hole, which was then sealed and the plot lightly watered. A total of 90,000 vermiform eggs were added to each plot.
# The first root evaluation was at 28 DAT. The tops were cut off and weighed immediately in the field, and the roots were carefully dug out so as not to disturb the remaining plant.
# [2] = system: sting (Belonolaimus longicaudatus) nematodes; experiment: Sting nematode bench top soil assay
# Description: Populations of sting (Belonolaimus longicaudatus) nematodes are maintained on St. Augustine turf grass on soil in 15-cm pots. At test initiation the turf is removed from the pots and the soil containing nematode eggs, juveniles, and adults is subdivided into pots each containing a volume of 125 cm^3′ The compounds to be tested are dissolved in 3 ml of acetone using 3, 6, or 15 mg to achieve equivalent surface area application rates of 2, 4, or 10 kg/ha, respectively. The 3 ml acetone stock solution is added to 30 ml of water, and 5 ml of that solution is used to drench each of 6 replicate test pots prepared as described above. The treated pots containing nematodes are incubated in the laboratory at ambient temperature of approximately 25° C. After 3 days the soil from each pot is washed onto a modified Baermann apparatus comprised of a screen supporting a layer of filter paper on which the soil sample is placed and set in a dish of water. The samples are then incubated at 25° C. for 24 hours to allow the live nematodes to migrate through the paper and screen and into a water reservoir to be collected for counting with a light microscope. Nematodes that have been killed or immobilized by the test compounds are not able to migrate into the reservoir.
# Meloidogyne incognita [3] = experiment: M. incognita miniaturized greenhouse assay on cucumber seedlings (root galling); design: key to 1 ppm gall ratings / 1 ppm gall rating: mean of 3 gall ratings: 0=0-5%, 1=6-20%, 2=21-50%, 3=51-100% root galled
# Description: The test compound is dissolved in an acetone solution and added to water. A sprouted cucumber seedling is placed into a vial with dry sand and the water-chemical solution is added immediately. Twenty four hours later Meloidogyne incognita eggs are added to the vials and 10 to 12 days later the roots are evaluated for nematode galling.
# Cucumber seeds are sprouted for 3 days in moist paper towels. Acceptable sprouts should be 3 to 4 cm long with several lateral roots just emerging. Stock solutions of chemistry are prepared in a mixture of acetone and Triton X100 (412 mg in 500 mL) to a final concentration of 5 mg/mL. The chemical stock solution is then added to 10 mL deionized water plus 0.015% Triton X100 and mixed thoroughly. This is enough to test each condition in triplicate. Ten mL dry sand is added to each vial. At this time the solubility of the chemistry is visually determined and recorded as either ppt (large precipitates) or cloudy (fine precipitates). Seedlings are planted by tilting the vial and laying the seedling in the correct orientation so that the cotyledons are just above the sand and then tilting back to cover the radicles with sand. 3.3 ml water/chemical mix is added to each vial and the vials placed in racks under fluorescent light banks. The vials are inoculated two days after planting by adding 500 vermiform M. incognita eggs to each vial in 50 uL of deionized or spring water. The vials are then kept under the fluorescent lamps at ambient room temperature and watered as needed with 1 mL deionized water, usually twice during duration of test. Harvest of the cucumber plants is done 10 to 12 days after inoculation by washing sand off the roots. A root gall rating and visual phytotoxicity rating is assigned using the following scales: Gall rating scale (Gall: % root mass galled): 0=0-5%; 1=6-20%; 2=21-50%; and 3=51-100%. The average of the triplicate gall rating is then calculated: green=0.00-0.33 (no galls); yellow=0.67-1.33 (mild galling); orange=1.67-2.33 (moderate galling); red=2.67-3.00 (severe galling). Visual phytotoxicity scale is also assigned (Vis. tox; visual reduction in root mass compared to the control): rs1=mild stunting; rs2=moderate stunting; rs3=severe stunting.
# C. elegans = experiment: Three day C. elegans well assay; details: for EC50 L4 1D / EC50 L1 1D: one day of exposure; for EC50 L4 2D (F1) / EC50 L4 2D: two days of exposure; for EC50 L4 2D (F1): effects on the second generation larvae (F1); for EC50 L1 1D: L1 larvae
# Description: Various compounds were tested for nematicidal activity against C. elegans using contact assays in wells. The assays were performed as described below. The test compounds were solubilized in DMSO at 10 mg/ml to create 100× stock solutions. A dilution series was created by diluting the stock solution with DMSO. For each well assay 4 ul of the appropriate dilution is added to a well of a test plate. A 400 ul aliquot of bacterial stock (in M9 buffer with ampicillin and nystatin) are added to each well of the test plate. Worms are added and the test plate placed on a rotary shaker and held at 20° C. Worms are examined and scored at 4 hrs, 24 hrs, 48 hrs and 72 hours. L1 worms and L4 worms were used in the assay. L1 worms are prepared by plating eggs on a plate without a bacterial feeding layer. The eggs hatch and arrest at the L1 stage. This L1 stage population is then used to create a stock for the experiments. To create an L4 stage stock a small number of worms are taken from an overgrown and starved plate of worms and seeded on a plate with a bacterial feeder layer. A 25 ul aliquot of worms is added to each well in the assay.
compound,measurement,setting,value
Clc1ccc(-c2nnc(-c3cccs3)o2)cc1 [compound 4559],RG28 = % root galls at 28 days after treatment,"Meloidogyne incognita [1]; 2 kg ai/ha drench, squash",34.2%
same,RG43 = % root galls at 43 days after treatment,"Meloidogyne incognita [1]; 2 kg ai/ha drench, squash",24.0%
same,control of root galling compared with oxamyl at an equivalent rate,"Meloidogyne incognita [1]; 2 kg/ha, 43 day time point",significantly better than oxamyl
same,Number of nematodes recovered from treated soil after 3 days incubation with the compound,[2]; 2 kg/ha,39
same,Number of nematodes recovered from treated soil after 3 days incubation with the compound,[2]; 4 kg/ha,47
same,Number of nematodes recovered from treated soil after 3 days incubation with the compound,[2]; 10 kg/ha,33
same,1 ppm gall ratings,"Meloidogyne incognita [3]; 1 ppm, Table 1B test a",1^a (1=6-20%)
same,8 ppm gall ratings,"Meloidogyne incognita [3]; 8 ppm, average of triplicate gall rating, scale 0-3 (% root mass galled)",0 (0=0-5%)
Clc1cc(-c2noc(-c3cccs3)n2)ccc1Br [compound 5820],EC50 L4 1D,C. elegans; L4 larvae,no
same,EC50 L4 2D (F1),C. elegans; L4 larvae,(25 F1) parts per million
Clc1cc(-c2noc(-c3ccco3)n2)ccc1Br [compound 5821],EC50 L4 1D,C. elegans; L4 larvae,no
same,EC50 L4 2D (F1),C. elegans; L4 larvae,(0.4 F1) parts per million
Cc1cc(Cl)ccc1-c1noc(-c2cccs2)n1 [compound 5822],EC50 L4 1D,C. elegans; L4 larvae,no
Cc1cc(Br)ccc1-c1noc(-c2cccs2)n1 [compound 5824],EC50 L4 1D,C. elegans; L4 larvae,no
same,EC50 L4 2D,C. elegans; L4 larvae,no
Clc1ccccc1-c1cnc(-c2ccco2)o1 [compound 5828],EC50 L4 1D,C. elegans; L4 larvae,no
same,EC50 L4 3D,"C. elegans; L4 larvae, three days of exposure",no
same,EC50 L4 2D,C. elegans; L4 larvae,no
Cc1cc(F)ccc1-c1noc(-c2cccs2)n1 [compound 5845],EC50 L1 1D,C. elegans,no
same,EC50 L4 1D,C. elegans; L4 larvae,no
Fc1ccc(-c2noc(-c3cccs3)n2)c(F)c1 [compound 5847],EC50 L1 1D,C. elegans,no
same,EC50 L4 1D,C. elegans; L4 larvae,no
Fc1ccc(-c2noc(-c3ccco3)n2)c(F)c1 [compound 5849],EC50 L4 1D,C. elegans; L4 larvae,no
same,EC50 L4 2D (F1),C. elegans; L4 larvae,(6.3 F1) parts per million
